Experimental data from patent publication US7935698B2, “Heteroaryl-hydrazone compounds” (Synta Pharmaceuticals Corporation, priority 2003, dated 2011).

tested on: IL-12 production; assay: Human in vitro assay: inhibition of IL-12 production in stimulated human PBMC or THP-1 cells (sandwich ELISA); type: cell-based; conditions: primed with IFNγ and stimulated with LPS or SAC, IL-12 by ELISA
From the text: The biological activities of the compounds of the invention can be evaluated by a number of cell-based assays. One of such assays can be conducted using cells from human peripheral blood mononuclear cells (PBMC) or human monocytic cell line (THP-1). The cells are stimulated with a combination of human interferon-γ (IFNγ) and lipopolysaccharide or a combination of IFNγ and Staphylococcus aureus Cowan I in the presence of a test compound. The level of inhibition of IL-12 production can be measured by determining the amount of p70 by using a sandwich ELISA assay with anti-human IL-12 antibodies. IC50 of the test compound can then be determined. Specifically, PBMC or THP-1 cells are incubated with the test compound. Cell viability was assessed using the bioreduction of MTS [3-(4,5-dimethylthiazol-2-yl)-5-(3-carboxymethoxyphenyl)-2-(4-sulfophenyl)-2H-tetrazolium] (Promega, Madison, Wis.).
Reagents. Staphylococcus aureus Cowan I (SAC) is obtained from Calbiochem (La Jolla, Calif.), and lipopolysaccharide (LPS, Serratia marscencens) is obtained from Sigma (St. Louis, Mo.). Human and mouse recombinant IFNγ are purchased from Boehringer Mannheim (Mannheim, Germany) and Pharmingen (San Diego, Calif.), respectively.
Human In Vitro Assay. Human PBMC were isolated by centrifugation using Ficoll-Paque (Pharmacia Biotech, Uppsala, Sweden) and prepared in RPMI medium supplemented with 10% fetal calf serum (FCS), 100 U/mL penicillin, and 100 μg/mL streptomycin. PBMC were plated in wells of a 96-well plate at a concentration of 5×10^5 cells/well, and primed by adding IFNγ (30 U/mL) for 22 h and stimulated by adding LPS (1 μg/mL), or by adding IFNγ (100 U/mL) and then stimulated by adding SAC (0.01%). A test heteroaryl hydrazone compound was dissolved in DMSO, and added to wells of the 96-well plate. The final DMSO concentration was adjusted to 0.25% in all cultures, including the compound-free control. Human THP-1 cells were plated in wells, primed by adding IFNγ (100 U/mL) for 22 h and stimulated by adding SAC (0.025%) in the presence of different concentrations of the heteroaryl hydrazone compound. Cell-free supernatants were taken 18 h later for measurement of cytokines. Cell viability was assessed using the bioreduction of MTS. Cell survival was estimated by determining the ratio of the absorbance in compound-treated groups versus compound-free control.
The supernatant was assayed for the amount of IL-12p40, IL-12p70, or IL-10 by using a sandwich ELISA with anti-human antibodies, i.e., a Human IL-12 p40 ELISA kit from R&D Systems (Berkeley, Calif.), and a Human IL-12 p70 or IL-10 ELISA kit from Endogen (Cambridge, Mass.). Assays were based on the manufacturer's instructions.
The biological activities of heteroaryl hydrazone compounds were tested on human PBMC or THP-1 cells.

| SMILES | IC50 [nM] |
| --- | --- |
| Cc1cccc(NN=Cc2cc(N3CCOCC3)nc(OCCc3ccccn3)n2)c1 [Compound 1, N-[6-Morpholin-4-yl-2-(2-pyridin-2-yl-ethoxy)-pyrimidin-4-ylmethylene]-N′-m-tolyl-hydrazine] | 2.2 |
| Clc1cccc(NN=Cc2cc(N3CCOCC3)nc(OCCc3ccccn3)n2)c1 [Compound 2, N-(3-Chloro-phenyl)-N′-[6-morpholin-4-yl-2-(2-pyridin-2-yl-ethoxy)-pyrimidin-4-ylmethylene]-hydrazine] | 10 |
| COc1cccc(NN=Cc2cc(N3CCOCC3)nc(OCCc3ccccn3)n2)c1 [Compound 3, N-(3-Methoxy-phenyl)-N′-[6-morpholin-4-yl-2-(2-pyridin-2-yl-ethoxy)-pyrimidin-4-ylmethylene]-hydrazine] | 2.2 |
| Cc1ccc(C)c(NN=Cc2cc(N3CCOCC3)nc(OCCc3ccccn3)n2)c1 [Compound 4, N-(2,5-Dimethyl-phenyl)-N′-[6-morpholin-4-yl-2-(2-pyridin-2-yl-ethoxy)-pyrimidin-4-ylmethylene]-hydrazine] | 6.5 |
| Cc1cccc(NN=Cc2cc(OCCc3ccccn3)nc(N3CCOCC3)n2)c1 [Compound 6, N-[2-Morpholin-4-yl-6-(2-pyridin-2-yl-ethoxy)-pyrimidin-4-ylmethylene]-N′-m-tolyl-hydrazine] | 40 |
